In PubChem BioAssay AID651703 (Broad Institute, 2012):

The compounds below were run against Transforming acidic coiled-coil-containing protein 3 (Homo sapiens) (UniProt Q9Y6A5) (assay: inhibition of ARNT PAS-B/TACC3 complex formation – biochemical, AlphaScreen, cherry-picked samples, confirmation (AID 651703;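 note: TACC3 partner is the GST-tagged E629A mutant dimer; hits lower the signal meaning they disrupt ARNT binding to TACC3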)). Conditions: AlphaScreen His-ARNT PAS-B / GST-TACC3 binding, luminescence.

`O=S(=O)(N[C@H]1CC[C@@H](CCn2cc(-c3ccccn3)nn2)O[C@H]1CO)c1cccc(F)c1` and `O=S(=O)(N[C@H]1CC[C@H](CCn2cc(-c3ccccn3)nn2)O[C@H]1CO)c1cccc(Cl)c1` are within 1.5-fold of each other in AC50: 19.1 µM for the first, 26.6 µM for the second.

First: COc1ccc(OC)c(NC(=O)CSc2ccc3nnc(-c4ccccn4)n3n2)c1
Second: COc1ccccc1CNC(=O)CSc1ccc(-c2ccccn2)nn1
The AC50 of the first is 3.6-fold higher: 34.3 µM for the first, 9.48 µM for the second.

Compared with `Cc1ccc(S(=O)(=O)N2CCOCC2)cc1NC(=O)CNCc1ccccn1`, `O=C(CNCc1ccccn1)Nc1ccc([N+](=O)[O-])cc1C(=O)Nc1ccccc1F` is 2-fold lower in AC50: 6.07 µM for the first, 3.05 µM for the second.

First: CCC(=O)NC(c1cc(Cl)c2cccnc2c1O)C(C)C (stereo unspecified)
Second: CCC(=O)NC(c1ccc(C)cc1)c1cc([N+](=O)[O-])c2cccnc2c1O (stereo unspecified)
The AC50 of the first is 1.6-fold higher: 5.58 µM for the first, 3.54 µM for the second.

Compared with `CCCN(CCC)c1nc(-c2ccccn2)nc2ccccc12`, `O=c1[nH]c(-c2ccccn2)nc2ccccc12` is 2-fold lower in AC50: 15.5 µM for the first, 7.86 µM for the second.

Compared with `O=C(c1ccccn1)N1CC[C@@H]2[C@H](CO)Nc3ccc(Br)cc3[C@@H]21`, `O=C(NC[C@H]1[C@@H](c2ccccc2)[C@@H](CO)N1Cc1ccccn1)C1CCC1` is 2.1-fold higher in AC50: 24.1 µM for the first, 51.5 µM for the second.

Compared with `Oc1ccc(CNC2Cc3ccccc3C2)c2cccnc12`, `Oc1cc(NCc2ccc(F)cc2)cc2cccnc12` is 14-fold higher in AC50: 0.63 µM for the first, 8.9 µM for the second.

Compared with `Cc1ncc(CO)c(/C=N/NC(=O)c2cc3c(s2)CCCC3)c1O`, `O=C(N/N=C/c1c(O)n(CCC2=CCCCC2)c(=O)[nH]c1=O)c1ccccc1` is 1.7-fold higher in AC50: 11.3 µM for the first, 19.5 µM for the second.

`O=C(N[C@@H]1CC[C@H](CCn2cc(-c3ccccn3)nn2)O[C@@H]1CO)c1ccccc1` and `O=C(N[C@@H]1CC[C@H](CCn2cc(-c3ccccn3)nn2)O[C@H]1CO)c1ccc(F)cc1` are within 1.5-fold of each other in AC50: 20.7 µM for the first, 14.3 µM for the second.

Compared with `O=C(CSc1nnc(-c2ccccn2)o1)Nc1ccccc1Cl`, `O=C(CSc1n[nH]c(-c2ccccn2)n1)Nc1ccc(F)cc1` is 9.1-fold lower in AC50: 9.92 µM for the first, 1.09 µM for the second.

Compared with `C[C@@H]1CN([C@@H](C)CO)C(=O)Cc2cc(NC(=O)Nc3cccc4ccccc34)ccc2O[C@H]1CN(C)Cc1ccc(Oc2ccccc2)cc1`, `COc1ccc(CNc2nc(-c3ccccn3)nnc2-c2ccccc2)cc1` is 30-fold lower in AC50: 18.4 µM for the first, 0.611 µM for the second.

`CN(C)CCN(C(=O)c1ccc2c(c1)CCCC2)c1nc2cc3c(cc2s1)OCCO3` and `COc1ccc(C(=O)Nc2nnc(C3=COCCO3)o2)cc1` are within 1.5-fold of each other in AC50: 19.9 µM for the first, 24.9 µM for the second.

`O=C(Nc1nnc(-c2ccc(F)cc2)o1)c1ccco1` and `N#Cc1ccc(C(=O)Nc2nnc(-c3ccco3)o2)cc1` are within 1.5-fold of each other in AC50: 37 µM for the first, 27.7 µM for the second.

Going from `c1ccc(-c2nnc(-c3ccccn3)nc2Nc2cnc3ccccc3n2)cc1` to `c1ccc(-c2nnc(Nc3nc(-c4ccccn4)nnc3-c3ccccc3)s2)cc1`, the AC50 rises from under 0.5 µM to 1.74 µM.

Going from `O=C(N/N=C\c1cccc([N+](=O)[O-])c1O)C1COc2ccccc2O1` (stereo unspecified) to `Cc1nc2ccccc2c(=O)n1/N=C/c1ccc(O)c(O)c1O`, the AC50 rises from 14.7 µM to 25.9 µM (1.8-fold).

Going from `Cc1cc(C)c(NC(=O)CSc2nnc(-c3ccccn3)n2N)c(Cl)c1` to `Cc1ccc(C)c(-n2c(SCC(N)=O)nnc2-c2ccccn2)c1`, the AC50 falls from 37.1 µM to 20 µM (1.9-fold).

`O=C(Nc1ccc(Cl)cc1)O/N=C(\c1ccccc1)c1ccccn1` and `N/C(=N\OS(=O)(=O)c1ccc(Cl)cc1)c1ccccn1` are within 1.5-fold of each other in AC50: 17.6 µM for the first, 22.5 µM for the second.

`COc1ccc(NC(=O)N[C@H]2CC[C@@H](CCn3cc(-c4ccccn4)nn3)O[C@@H]2CO)cc1` and `O=S(=O)(N[C@@H]1CC[C@H](CCn2cc(-c3ccccn3)nn2)O[C@@H]1CO)c1cccc(Cl)c1` are within 1.5-fold of each other in AC50: 13.3 µM for the first, 16.7 µM for the second.

Going from `Cc1cc(=O)n2c3c(c4c(cc13)c(CN(C)C)cc(=O)n4C)OC2` to `CCN(CC)C(=O)c1sc2nc(-c3ccccn3)[nH]c(=O)c2c1C`, the AC50 falls from 17.7 µM to 10.5 µM (1.7-fold).

Going from `Cc1ccc(S(=O)(=O)NC(=O)c2cc(C)n(CCCn3ccnc3)c2C)cc1` to `Cc1nc2ccccc2n1CC(=O)c1ccc(O)c(O)c1`, the AC50 rises from 21.2 µM to 49.8 µM (2.3-fold).

Going from `O=S(=O)(Nc1cccc2cccnc12)c1ccc(S(=O)(=O)N2CCCC2)cc1` to `O=S(=O)(c1ccccc1)N1C[C@@H]2[C@H](c3ccccc31)[C@H](CO)N2Cc1ccccn1`, the AC50 rises from 23.3 µM to 61.5 µM (2.6-fold).

Going from `CNc1ccc2nc3ccccc3[n+](C)c2c1` to `O=S1(=O)N=C(N/N=C/c2ccccn2)c2ccccc21`, the AC50 falls from 29.9 µM to 4.02 µM (7.4-fold).

Compared with `C(=N\Nc1ncnc2nc[nH]c12)/c1cccs1`, `Cc1nnc(SCC(=O)Nc2nnc(-c3ccccc3)o2)s1` is 3.5-fold lower in AC50: 57.8 µM for the first, 16.4 µM for the second.

Going from `O=C(Nc1nnc(-c2ccco2)o1)c1ccc(N2C(=O)CCC2=O)cc1` to `O=C(N/N=C/c1cc(Br)ccc1OC(=O)c1ccc(Br)cc1)c1ccncc1`, the AC50 falls from 22.8 µM to 4.24 µM (5.4-fold).

First: CCc1cc2c(=O)[nH]c(-c3ccccn3)nc2s1
Second: c1ccc(-c2nnc(-c3ccccn3)nn2)nc1
The AC50 of the first is 10-fold lower: 2.86 µM for the first, 28.8 µM for the second.

First: CCOc1cc(CNCc2ccccn2)cc(Cl)c1OC
Second: C/C=C/c1ccc([C@H]2[C@@H](CO)N(Cc3ccccn3)[C@H]2CNC(=O)CC)cc1
The AC50 of the first is 1.7-fold lower: 39.7 µM for the first, 66.7 µM for the second.

Compared with `Cn1c(-c2ccc3c(c2)OCO3)cnc1N`, `c1ccc(CSc2ccc(-c3ccccn3)nn2)nc1` is 44-fold lower in AC50: 39 µM for the first, 0.895 µM for the second.

First: NCCc1cnc[nH]1
Second: NC(CO)C(=O)NNCc1ccc(O)c(O)c1O (stereo unspecified)
The AC50 of the first is 1.7-fold higher: 23.1 µM for the first, 13.3 µM for the second.
